Data from patent US6410054B1, “Immediate release eplerenone compositions” (G. D. Searle & Co., priority 1998, dated 2002).

Key:
[1] = Single dose study: urinary excretion of eplerenone and open lactone ring form; format: in vivo, humans
Description: The study employed seven parallel dose groups of eight healthy male humans.
The plasma samples collected from subjects dosed with eplerenone were assayed for concentrations of eplerenone and the open lactone ring form of eplerenone. […] A subset of plasma samples was also assayed for testosterone levels. The urine collected was analyzed to determine concentrations and amounts of eplerenone and the open lactone ring form of eplerenone, the amount of sodium and potassium excreted, and the urinary log10 (sodium/potassium) ratio.

[2] = Treatment of hypertension study: safety; format: in vivo, humans
Description: The safety and efficacy of a range of doses of eplerenone in the treatment of hypertension relative to placebo were evaluated in a multi-center, randomized, double-blind, placebo-lead-in, parallel group study. […] The primary efficacy variable was the change in cuff diastolic blood pressure (ADBP; sitting) measured at trough plasma levels after eight weeks of double blind treatment. The secondary variables measured were the change in trough cuff systolic blood pressure (ΔSBP; sitting), change in 24 hour mean diastolic blood pressure (ΔDBP), and change in 24 hour mean systolic blood pressure (ΔSBP). The primary and secondary efficacy variables were analyzed to compare BID versus QD dosing regimens for each eplerenone dose group, and both eplerenone and spironolactone versus placebo. Changes in plasma renin and serum aldosterone after eight weeks of dosing were also analyzed as secondary measures of efficacy.
All eplerenone doses lowered cuff diastolic and systolic pressures from baseline after eight weeks of treatment compared to placebo. […] There was, however, a trend toward greater reduction with the BID dosing regimen. […] Over the course of the study, the mean change in heart rate from baseline was minimal in all treatment groups, with the largest mean increase and decrease in heart rate being +2 beats/minute and −1.8 beats/minute, respectively. […] Safety was assessed by comparing the incidence of adverse events, withdrawals, and the results of urinalysis, hematology and biochemistry laboratory tests across the treatment group to the placebo group.

[3] = all eplerenone treatment groups

In the case of `COC(=O)C1CC2=CC(=O)CCC2(C)C23OC2CC2(C)C(CC[C@@]24CCC(=O)O4)C13` (stereo partly drawn) [eplerenone, methyl hydrogen 9,11α-epoxy-17α-hydroxy-3-oxopregn-4-ene-7α,21-dicarboxylate, γ-lactone], the “Amount of Eplerenone Excreted in Urine” value ([1]; 10 mg dose, 0 to 2 hours) was “(21.6) mcg”, the “Concentration of Eplerenone Excreted in Urine” value (shortened to “Concentration”) ([1]; 10 mg dose, 0 to 2 hours) was 278.0 ng/mL and the “Amount of Eplerenone Excreted in Urine” value ([1]; 10 mg dose, 0 to 24 hours) was “(78.8) mcg”. The “Amount of Eplerenone Excreted in Urine” value ([1]; 10 mg dose, 2 to 4 hours) was “(35.8) mcg”, the “Concentration” value ([1]; 10 mg dose, 2 to 4 hours) was 191.1 ng/mL and the “Amount of Eplerenone Excreted in Urine” value ([1]; 10 mg dose, 4 to 6 hours) was “(16.5) mcg”. For the same molecule, the “Concentration” value ([1]; 10 mg dose, 4 to 6 hours) was 107.2 ng/mL, the “Amount of Eplerenone Excreted in Urine” value ([1]; 10 mg dose, 6 to 8 hours) was “(7.6) mcg” and the “Concentration” value ([1]; 10 mg dose, 6 to 8 hours) was 63.8 ng/mL. The “Amount of Eplerenone Excreted in Urine” value ([1]; 10 mg dose, 8 to 10 hours) was “(0) mcg”, the “Concentration” value ([1]; 10 mg dose, 8 to 10 hours) was 0 ng/mL and the “Amount of Eplerenone Excreted in Urine” value ([1]; 10 mg dose, 10 to 12 hours) was “(0) mcg”. The “Concentration” value ([1]; 10 mg dose, 10 to 12 hours) was 0 ng/mL, the “Amount of Eplerenone Excreted in Urine” value ([1]; 10 mg dose, 12 to 14 hours) was “(0) mcg” and the “Concentration” value ([1]; 10 mg dose, 12 to 14 hours) was 0 ng/mL. For the same molecule, the “Amount of Eplerenone Excreted in Urine” value ([1]; 10 mg dose, 14 to 16 hours) was “(0) mcg”, the “Concentration” value ([1]; 10 mg dose, 14 to 16 hours) was 0 ng/mL and the “Amount of Eplerenone Excreted in Urine” value ([1]; 10 mg dose, 16 to 24 hours) was “(0) mcg”. The “Concentration” value ([1]; 10 mg dose, 16 to 24 hours) was 0 ng/mL, the “Amount of Eplerenone Excreted in Urine” value ([1]; 10 mg dose, −9 to 0 hours) was “(0) mcg” and the “Concentration” value ([1]; 10 mg dose, −9 to 0 hours) was 0 ng/mL. For the same molecule, the “Amount of Eplerenone Excreted in Urine” value ([1]; 50 mg dose, 0 to 2 hours) was “(99.2) mcg”, the “Concentration” value ([1]; 50 mg dose, 0 to 2 hours) was 1252.2 ng/mL and the “Amount of Eplerenone Excreted in Urine” value ([1]; 50 mg dose, 0 to 24 hours) was “(410.6) mcg”. The “Amount of Eplerenone Excreted in Urine” value ([1]; 50 mg dose, 2 to 4 hours) was “(175.3) mcg”, the “Concentration” value ([1]; 50 mg dose, 2 to 4 hours) was 1064.6 ng/mL and the “Amount of Eplerenone Excreted in Urine” value ([1]; 50 mg dose, 4 to 6 hours) was “(60.6) mcg”. For the same molecule, the “Concentration” value ([1]; 50 mg dose, 4 to 6 hours) was 518.3 ng/mL, the “Amount of Eplerenone Excreted in Urine” value ([1]; 50 mg dose, 6 to 8 hours) was “(30.7) mcg” and the “Concentration” value ([1]; 50 mg dose, 6 to 8 hours) was 307.3 ng/mL. The “Amount of Eplerenone Excreted in Urine” value ([1]; 50 mg dose, 8 to 10 hours) was “(27.6) mcg”, the “Concentration” value ([1]; 50 mg dose, 8 to 10 hours) was 172.4 ng/mL and the “Amount of Eplerenone Excreted in Urine” value ([1]; 50 mg dose, 10 to 12 hours) was “(16.5) mcg”. The “Concentration” value ([1]; 50 mg dose, 10 to 12 hours) was 72.7 ng/mL, the “Amount of Eplerenone Excreted in Urine” value ([1]; 50 mg dose, 12 to 14 hours) was “(11.3) mcg” and the “Concentration” value ([1]; 50 mg dose, 12 to 14 hours) was 23.1 ng/mL. The “Amount of Eplerenone Excreted in Urine” value ([1]; 50 mg dose, 14 to 16 hours) was “(1.5) mcg”, the “Concentration” value ([1]; 50 mg dose, 14 to 16 hours) was 21.6 ng/mL and the “Amount of Eplerenone Excreted in Urine” value ([1]; 50 mg dose, 16 to 24 hours) was “(4.0) mcg”. The “Concentration” value ([1]; 50 mg dose, 16 to 24 hours) was 13.1 ng/mL, the “Amount of Eplerenone Excreted in Urine” value ([1]; 50 mg dose, −9 to 0 hours) was “(0) mcg” and the “Concentration” value ([1]; 50 mg dose, −9 to 0 hours) was 0 ng/mL. The “Amount of Eplerenone Excreted in Urine” value ([1]; 100 mg dose, 0 to 2 hours) was “(360.2) mcg”, the “Concentration” value ([1]; 100 mg dose, 0 to 2 hours) was 2623.3 ng/mL and the “Amount of Eplerenone Excreted in Urine” value ([1]; 100 mg dose, 0 to 24 hours) was “(1271.4) mcg”. The “Amount of Eplerenone Excreted in Urine” value ([1]; 100 mg dose, 2 to 4 hours) was “(407.6) mcg”, the “Concentration” value ([1]; 100 mg dose, 2 to 4 hours) was 2305.6 ng/mL and the “Amount of Eplerenone Excreted in Urine” value ([1]; 100 mg dose, 4 to 6 hours) was “(285.1) mcg”. For the same molecule, the “Concentration” value ([1]; 100 mg dose, 4 to 6 hours) was 1157.3 ng/mL, the “Amount of Eplerenone Excreted in Urine” value ([1]; 100 mg dose, 6 to 8 hours) was “(158.8) mcg” and the “Concentration” value ([1]; 100 mg dose, 6 to 8 hours) was 627.6 ng/mL. The “Amount of Eplerenone Excreted in Urine” value ([1]; 100 mg dose, 8 to 10 hours) was “(69.1) mcg”, the “Concentration” value ([1]; 100 mg dose, 8 to 10 hours) was 362.9 ng/mL and the “Amount of Eplerenone Excreted in Urine” value ([1]; 100 mg dose, 10 to 12 hours) was “(44.7) mcg”. The “Concentration” value ([1]; 100 mg dose, 10 to 12 hours) was 146.6 ng/mL, the “Amount of Eplerenone Excreted in Urine” value ([1]; 100 mg dose, 12 to 14 hours) was “(26.6) mcg” and the “Concentration” value ([1]; 100 mg dose, 12 to 14 hours) was 110.3 ng/mL. The “Amount of Eplerenone Excreted in Urine” value ([1]; 100 mg dose, 14 to 16 hours) was “(6.6) mcg”, the “Concentration” value ([1]; 100 mg dose, 14 to 16 hours) was 36.5 ng/mL and the “Amount of Eplerenone Excreted in Urine” value ([1]; 100 mg dose, 16 to 24 hours) was “(2.7) mcg”. The “Concentration” value ([1]; 100 mg dose, 16 to 24 hours) was 7.1 ng/mL, the “Amount of Eplerenone Excreted in Urine” value ([1]; 100 mg dose, −9 to 0 hours) was “(0) mcg” and the “Concentration” value ([1]; 100 mg dose, −9 to 0 hours) was 0 ng/mL. For the same molecule, the “Amount of Eplerenone Excreted in Urine” value ([1]; 300 mg dose, 0 to 2 hours) was “(677.7) mcg”, the “Concentration” value ([1]; 300 mg dose, 0 to 2 hours) was 9370.1 ng/mL and the “Amount of Eplerenone Excreted in Urine” value ([1]; 300 mg dose, 0 to 24 hours) was “(2872.3) mcg”. For the same molecule, the “Amount of Eplerenone Excreted in Urine” value ([1]; 300 mg dose, 2 to 4 hours) was “(873.7) mcg”, the “Concentration” value ([1]; 300 mg dose, 2 to 4 hours) was 6465.9 ng/mL and the “Amount of Eplerenone Excreted in Urine” value ([1]; 300 mg dose, 4 to 6 hours) was “(672.6) mcg”. For the same molecule, the “Concentration” value ([1]; 300 mg dose, 4 to 6 hours) was 3865.2 ng/mL, the “Amount of Eplerenone Excreted in Urine” value ([1]; 300 mg dose, 6 to 8 hours) was “(337.0) mcg” and the “Concentration” value ([1]; 300 mg dose, 6 to 8 hours) was 2237.8 ng/mL. The “Amount of Eplerenone Excreted in Urine” value ([1]; 300 mg dose, 8 to 10 hours) was “(307.9) mcg”, the “Concentration” value ([1]; 300 mg dose, 8 to 10 hours) was 1208.6 ng/mL and the “Amount of Eplerenone Excreted in Urine” value ([1]; 300 mg dose, 10 to 12 hours) was “(162.4) mcg”. The “Concentration” value ([1]; 300 mg dose, 10 to 12 hours) was 542.4 ng/mL, the “Amount of Eplerenone Excreted in Urine” value ([1]; 300 mg dose, 12 to 14 hours) was “(97.4) mcg” and the “Concentration” value ([1]; 300 mg dose, 12 to 14 hours) was 419.6 ng/mL. For the same molecule, the “Amount of Eplerenone Excreted in Urine” value ([1]; 300 mg dose, 14 to 16 hours) was “(52.2) mcg”, the “Concentration” value ([1]; 300 mg dose, 14 to 16 hours) was 292.6 ng/mL and the “Amount of Eplerenone Excreted in Urine” value ([1]; 300 mg dose, 16 to 24 hours) was “(50.4) mcg”. The “Concentration” value ([1]; 300 mg dose, 16 to 24 hours) was 126.4 ng/mL, the “Amount of Eplerenone Excreted in Urine” value ([1]; 300 mg dose, −9 to 0 hours) was “(0) mcg” and the “Concentration” value ([1]; 300 mg dose, −9 to 0 hours) was 0 ng/mL. The “Amount of Eplerenone Excreted in Urine” value ([1]; 1000 mg dose, 0 to 2 hours) was “(1482.0) mcg”, the “Concentration” value ([1]; 1000 mg dose, 0 to 2 hours) was 17858.6 ng/mL and the “Amount of Eplerenone Excreted in Urine” value ([1]; 1000 mg dose, 0 to 24 hours) was “(17246.6) mcg”. For the same molecule, the “Amount of Eplerenone Excreted in Urine” value ([1]; 1000 mg dose, 2 to 4 hours) was “(5983.3) mcg”, the “Concentration” value ([1]; 1000 mg dose, 2 to 4 hours) was 24460.3 ng/mL and the “Amount of Eplerenone Excreted in Urine” value ([1]; 1000 mg dose, 4 to 6 hours) was “(4041.5) mcg”. For the same molecule, the “Concentration” value ([1]; 1000 mg dose, 4 to 6 hours) was 13899.7 ng/mL, the “Amount of Eplerenone Excreted in Urine” value ([1]; 1000 mg dose, 6 to 8 hours) was “(2083.0) mcg” and the “Concentration” value ([1]; 1000 mg dose, 6 to 8 hours) was 8782.1 ng/mL. For the same molecule, the “Amount of Eplerenone Excreted in Urine” value ([1]; 1000 mg dose, 8 to 10 hours) was “(1853.9) mcg”, the “Concentration” value ([1]; 1000 mg dose, 8 to 10 hours) was 4491.0 ng/mL and the “Amount of Eplerenone Excreted in Urine” value ([1]; 1000 mg dose, 10 to 12 hours) was “(1177.2) mcg”. For the same molecule, the “Concentration” value ([1]; 1000 mg dose, 10 to 12 hours) was 2361.1 ng/mL, the “Amount of Eplerenone Excreted in Urine” value ([1]; 1000 mg dose, 12 to 14 hours) was “(892.8) mcg” and the “Concentration” value ([1]; 1000 mg dose, 12 to 14 hours) was 3183.7 ng/mL. For the same molecule, the “Amount of Eplerenone Excreted in Urine” value ([1]; 1000 mg dose, 14 to 16 hours) was “(340.5) mcg”, the “Concentration” value ([1]; 1000 mg dose, 14 to 16 hours) was 1405.2 ng/mL and the “Amount of Eplerenone Excreted in Urine” value ([1]; 1000 mg dose, 16 to 24 hours) was “(366.0) mcg”. The “Concentration” value ([1]; 1000 mg dose, 16 to 24 hours) was 658.0 ng/mL, the “Amount of Eplerenone Excreted in Urine” value ([1]; 1000 mg dose, −9 to 0 hours) was “(0) mcg” and the “Concentration” value ([1]; 1000 mg dose, −9 to 0 hours) was 0 ng/mL. The “adverse side effects at the highest dose administered” value ([2]; 1000 mg) was “No adverse side effects”, the potassium [2, 3] was “small but consistent increases” and the sodium [2, 3] was “decreases”. For the same molecule, the tolerability ([2]; each eplerenone dosing regimen) was “well tolerated”, the “BUN, uric acid levels compared to placebo” value ([2]; eplerenone treatment groups) was “increases” and the “urine pH compared to placebo” value ([2]; eplerenone treatment groups) was “decreases”.
